Assays:
Settings in all cases: 48 h
NOMO1 [1] = experiment: cell viability relative to DMSO control; higher = less cytotoxic
How it was run: (§1)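 Before seeding, each leukemia line was adapted for at least four passages in each medium. NOMO1 or SEM cells (500 cells/well) and P12-Ichikawa cells (1000 cells/well) went into 1536-well plates at 5 μl, then received library compounds in DMSO by pin dosing across 11 threefold concentrations, 47 μM to 0.79 nM. Readout was CellTiter-Glo One luminescence after 48 h at 37°C, and viability is given as a per-plate percentage of DMSO wells, with cell-free wells as background.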

P12-Ichikawa [2] = experiment: as above
How it was run: as §1

SEM cells [3] = experiment: as above
How it was run: as §1

NOMO1 [4] = experiment: AUC of viability dose-response curve (% viability x log10 dose units); higher = less sensitive
How it was run: (§2)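 Leukemia cells adapted to each medium were seeded in 1536-well plates (500 or 1000 cells/well). They were dosed with library compounds in DMSO at 11 threefold doses, 47 μM to 0.79 nM, for 48 h at 37°C. CellTiter-Glo One luminescence was normalised per plate to DMSO and cell-free wells. Area under the curve was integrated by trapezoidal rule over log10 doses on a four-parameter log-logistic fit; curves exceeding full viability were scaled and curves failing quality control removed.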

P12-Ichikawa [5] = experiment: as above
How it was run: as §2

SEM cells [6] = experiment: as above
How it was run: as §2

CN(C)CCN(Cc1ccc(Cl)cc1)c1ccccn1.Cl
cell viability [%]
Settings	NOMO1 [1]	P12-Ichikawa [2]	SEM cells [3]
HPLM + 10% dialyzed FBS, 0.000781 µM	84.4	89	79.9
HPLM + 10% dialyzed FBS, 0.00234 µM	90.2	97.1	80.5
HPLM + 10% dialyzed FBS, 0.00702 µM	89.4	95.9	80.9
HPLM + 10% dialyzed FBS, 0.0211 µM	95.3	97.1	80.1
HPLM + 10% dialyzed FBS, 0.0632 µM	91	96.9	79.3
HPLM + 10% dialyzed FBS, 0.19 µM	78.5	94.9	84.8
HPLM + 10% dialyzed FBS, 0.569 µM	98.2	97.5	89.9
HPLM + 10% dialyzed FBS, 1.71 µM	63.8	101	94.4
HPLM + 10% dialyzed FBS, 5.12 µM	93.9	95.2	86.6
HPLM + 10% dialyzed FBS, 15.4 µM	91.1	96.4	88
HPLM + 10% dialyzed FBS, 46.1 µM	90.3	101	86.9
RPMI 5 mM glucose + 10% FBS, 0.000781 µM	85.2	80.3	90.8
RPMI 5 mM glucose + 10% FBS, 0.00234 µM	90	80.4	90.8
RPMI 5 mM glucose + 10% FBS, 0.00702 µM	92.7	85.4	92.8
RPMI 5 mM glucose + 10% FBS, 0.0211 µM	92.6	95.1	84.4
RPMI 5 mM glucose + 10% FBS, 0.0632 µM	84.1	80.5	95.7
RPMI 5 mM glucose + 10% FBS, 0.19 µM	96.8	87.9	108
RPMI 5 mM glucose + 10% FBS, 0.569 µM	99.2	90.4	102
RPMI 5 mM glucose + 10% FBS, 1.71 µM	85.9	87.7	99.5
RPMI 5 mM glucose + 10% FBS, 5.12 µM	92	90.4	98.8
RPMI 5 mM glucose + 10% FBS, 15.4 µM	80	85.2	103
RPMI 5 mM glucose + 10% FBS, 46.1 µM	90.5	82.4	84.7
RPMI 5 mM glucose + 10% dialyzed FBS, 0.000781 µM	83.5	83	83.2
RPMI 5 mM glucose + 10% dialyzed FBS, 0.00234 µM	95.1	82.3	92.1
RPMI 5 mM glucose + 10% dialyzed FBS, 0.00702 µM	91.7	84.4	96.4
RPMI 5 mM glucose + 10% dialyzed FBS, 0.0211 µM	96.1	87.9	100
RPMI 5 mM glucose + 10% dialyzed FBS, 0.0632 µM	94.1	84.2	94
RPMI 5 mM glucose + 10% dialyzed FBS, 0.19 µM	89.3	79.2	106
RPMI 5 mM glucose + 10% dialyzed FBS, 0.569 µM	103	82.4	84
RPMI 5 mM glucose + 10% dialyzed FBS, 1.71 µM	50.5	80.3	96.1
RPMI 5 mM glucose + 10% dialyzed FBS, 5.12 µM	87.3	83.3	92.2
RPMI 5 mM glucose + 10% dialyzed FBS, 15.4 µM	89.8	78.8	106
RPMI 5 mM glucose + 10% dialyzed FBS, 46.1 µM	79.6	73.2	91.6

AUC of viability dose-response curve
Settings	NOMO1 [4]	P12-Ichikawa [5]	SEM cells [6]
HPLM + 10% dialyzed FBS	419	462	404
RPMI 5 mM glucose + 10% FBS	430	410	456
RPMI 5 mM glucose + 10% dialyzed FBS	418	391	452

CN[C@@H]1C[C@H]2O[C@@](C)([C@@H]1OC)n1c3ccccc3c3c4c(c5c6ccccc6n2c5c31)C(=O)N[C@H]4O
cell viability [%]
Settings	NOMO1 [1]	P12-Ichikawa [2]	SEM cells [3]
HPLM + 10% dialyzed FBS, 0.000781 µM	81.2	80.5	72.1
HPLM + 10% dialyzed FBS, 0.00234 µM	101	86.5	79.1
HPLM + 10% dialyzed FBS, 0.00702 µM	93.1	85.5	87.6
HPLM + 10% dialyzed FBS, 0.0211 µM	78.2	89.3	77.7
HPLM + 10% dialyzed FBS, 0.0632 µM	96.8	84.7	64
HPLM + 10% dialyzed FBS, 0.19 µM	56.4	75.9	55.4
HPLM + 10% dialyzed FBS, 0.569 µM	48.8	63.7	36.7
HPLM + 10% dialyzed FBS, 1.71 µM	35.4	22.5	16.5
HPLM + 10% dialyzed FBS, 5.12 µM	22.7	16.8	6.79
HPLM + 10% dialyzed FBS, 15.4 µM	18	23.2	3.78
HPLM + 10% dialyzed FBS, 46.1 µM	3.31	7.88	3.23
RPMI 5 mM glucose + 10% FBS, 0.000781 µM	76.2	80	81.2
RPMI 5 mM glucose + 10% FBS, 0.00234 µM	87.6	78	87.9
RPMI 5 mM glucose + 10% FBS, 0.00702 µM	81.4	83.8	83.8
RPMI 5 mM glucose + 10% FBS, 0.0211 µM	82.7	84.2	84.1
RPMI 5 mM glucose + 10% FBS, 0.0632 µM	84.6	78.4	57.5
RPMI 5 mM glucose + 10% FBS, 0.19 µM	69.4	63.4	69.5
RPMI 5 mM glucose + 10% FBS, 0.569 µM	64.7	44.5	35.4
RPMI 5 mM glucose + 10% FBS, 1.71 µM	19.6	12.8	5.65
RPMI 5 mM glucose + 10% FBS, 5.12 µM	14.8	12.8	4.44
RPMI 5 mM glucose + 10% FBS, 15.4 µM	12.7	14.8	4.12
RPMI 5 mM glucose + 10% FBS, 46.1 µM	3.97	15	2.58
RPMI 5 mM glucose + 10% dialyzed FBS, 0.000781 µM	79.9	84.7	82.8
RPMI 5 mM glucose + 10% dialyzed FBS, 0.00234 µM	84.5	90.4	78
RPMI 5 mM glucose + 10% dialyzed FBS, 0.00702 µM	85.9	85.9	76.6
RPMI 5 mM glucose + 10% dialyzed FBS, 0.0211 µM	90.5	85.8	90.4
RPMI 5 mM glucose + 10% dialyzed FBS, 0.0632 µM	95.9	81.2	67.3
RPMI 5 mM glucose + 10% dialyzed FBS, 0.19 µM	85.5	55.4	69.8
RPMI 5 mM glucose + 10% dialyzed FBS, 0.569 µM	65.5	62	45
RPMI 5 mM glucose + 10% dialyzed FBS, 1.71 µM	31.6	29	5.6
RPMI 5 mM glucose + 10% dialyzed FBS, 5.12 µM	16.9	14	5.83
RPMI 5 mM glucose + 10% dialyzed FBS, 15.4 µM	14.7	17.7	3.57
RPMI 5 mM glucose + 10% dialyzed FBS, 46.1 µM	3.79	11.5	2.57

AUC of viability dose-response curve
Settings	NOMO1 [4]	P12-Ichikawa [5]	SEM cells [6]
HPLM + 10% dialyzed FBS	279	280	220
RPMI 5 mM glucose + 10% FBS	264	249	226
RPMI 5 mM glucose + 10% dialyzed FBS	289	271	232
